Measurements published in article PMC9820303, “^αN-Acetyl β-Endorphin Is an Endogenous Ligand of σ1Rs That Regulates Mu-Opioid Receptor Signaling by Exchanging G Proteins for σ2Rs in σ1R Oligomers” (International Journal of Molecular Sciences, 2022).
“Also recorded” adds a separate entry of the source.

Assays:
σ1R-BiP = target: T1, σ1R-BiP (Mus musculus, UniProt O55242); test: In vitro σ1R-BiP association of recombinant proteins (Western blot); format: biochemical; conditions: for effect on σ1R-BiP association: increasing concentrations, 30 min RT, vs control without ligand; for activity at σ1R-BiP against agonists / β-End 1–31: 1 nM β-End 1–31 with increasing competitor (Figure S10)
T1 construct: The coding region of the full-length murine σ1R (AF004927); GST (N, cleaved yes); host or cells: E. coli BL21 (KRX) for σ1R
Procedure: (§1) Figure 7 Effect of β-End 1–31, ^αN-acetyl β-End 1–31 and their N-terminal derivatives on σ1R-σ2R, σ1R-NR1 C1 and σ1R-BiP associations. Amino acid sequence of β-End 1–31 showing derivatives 1–26 and 1–27. (A) HaloLink-attached σ2Rs were incubated for 30 min at RT in the presence of σ1Rs (100 nM) in 300 μL of 50 mM Tris-HCl (pH 7.4), 0.2% CHAPS, and 2.5 mM CaCl2. After removing the unbound σ1R proteins, the effects of increasing the peptide concentrations on σ1R-σ2R associations were studied. At the end of the incubation, protein complexes bound to HaloLink-σ2R were obtained by centrifugation, washed three times, solubilized in 2× Laemmli buffer containing β-mercaptoethanol, resolved by SDS-PAGE, and analyzed by Western blotting (for more details, see Section 4). This protocol was also used to assess the effect of ligands on (B) σ1R-NR1 C1 and (C) σ1R-BiP associations. Data were compared to that of the control, which was obtained in the absence of ligands. (A–C) Data are the mean ± SD, n = 3. (D) The β-End 1–31 structural models were predicted by Novafold (DNASTAR Lasergene protein v.17, Inc., Madison, WI, USA). Ribbon model: The 3D structure, charge distribution and hydrophobicity map of β-End 1–31 are shown. Positive charges are shown in red and negative charges in blue. Polar surfaces are shown in yellow, and nonpolar surfaces are shown in orange. Linear model: the opioid (1–5) and flexible region (8–11) sequences are shown in green and orange, respectively, and the amphiphilic helix (15–25) is shown in pink.
(§2) The recombinant σ1R (100 nM) was incubated either with Haloprotein (negative control) or together with the immobilized σ2R, NR1 C0-C1-C2 or BiP proteins in 300 µL of a buffer containing 50 mM Tris-HCl (pH 7.4) and 0.2% CHAPS in the presence of 2.5 mM CaCl2 for 30 min at RT. After removal of the unbound σ1R, the agarose-attached complexes were incubated for 30 min with rotation at RT in the presence of increasing concentrations of the ligands in a final reaction volume of 300 µL [50 mM Tris-HCl (pH 7.4), 2.5 mM CaCl2 and 0.2% CHAPS]. Ligands were usually dissolved in aqueous solutions; however, when an organic solvent such as DMSO was required to incorporate, e.g., pregnenolone sulfate, the solvent remained below 1% in the assay buffer. Agarose pellets containing the bound proteins were obtained by centrifugation, washed and resuspended thrice in the presence of 2.5 mM CaCl2, solubilized in 2× Laemmli buffer plus β-mercaptoethanol, and analyzed by Western blotting.
(§3) Because all the assays were performed with recombinant proteins, the immune signals provided a single band of the expected size, which was used for the subsequent densitometry analysis. Accordingly, no other regions of the blots provided information and were routinely excluded from the analysis.
Figure S8. Effect of the physiological and nonphysiological sequences of β-End 1-31 and classical σ1R ligands on BiP-σ1R, σ2R-σ1R and NR1 C1-σ1R associations . Agarose-BiP was loaded with σ1Rs, and after the unbound σ1Rs were removed, the agarose-BiP-σ1R complexes were incubated in the absence (control) and presence of increasing concentrations of (A) β-End 1-31 C-terminal physiological derivatives and (B) classical σ1R ligands. C) Agarose-σ2R loaded with σ1Rs was incubated in the absence (control) and with nonphysiological derivatives of β-End 1-31. D) Agarose-NR1 C1 loaded with σ1Rs were incubated in the absence (control) and with nonphysiological derivatives of β-End 1-31. A-D) The σ1Rs that remained attached to the agarose complexes were evaluated by Western blotting. The […]
(§4) (1 picture or pasted object on this page, not shown here)
Figure S10. Effect of σ1R agonist/antagonist ligands on σ1R-BiP associations. Agarose-attached BiP proteins were incubated for 30 min in the presence of recombinant σ1R (100 nM) proteins in 300 μL of 50 mM Tris-HCl (pH 7.4), 0.2% CHAPS, and 2.5 mM CaCl2. After the unbound σ1R proteins were […]

σ1R-NR1 C1 = target: T2, σ1R-NR1 C1 (Mus musculus, UniProt O55242); test: In vitro σ1R-NR1 C1 association of recombinant proteins (Western blot); format: biochemical, murine; conditions: increasing concentrations; 30 min RT; vs control without ligand
T2 construct: The coding region of the full-length murine σ1R (AF004927); GST (N, cleaved yes); made in house; host or cells: E. coli BL21 (KRX)
Procedure: as §1, §2, §3
Figure S8. Effect of the physiological and nonphysiological sequences of β-End 1-31 and classical σ1R ligands on BiP-σ1R, σ2R-σ1R and NR1 C1-σ1R associations . […]
D) Agarose-NR1 C1 loaded with […]
σ1Rs were incubated in the absence (control) and with nonphysiological derivatives of β-End 1-31. A-D) The σ1Rs that remained attached to the agarose complexes were evaluated by Western blotting. The […]
as §4
Figure S9. Effect of σ1R agonist/antagonist ligands on σ1R-NR1 C1 associations. Θ-Agarose-NR1 C1 was loaded with recombinant σ1Rs. After unbound σ1R proteins were removed, the complexes were incubated with (A) 1 nM β-End 1-31, (B) αN-acetyl β-End 1-31, (C-D) β-End 28-31 in the absence (black columns) and presence of (A) 10 nM or (B-D) increasing concentrations of competing σ1R ligands as indicated. The σ1Rs that remained attached to the Θ-σ2Rs were evaluated by Western blotting. The […]
Prog is progesterone; PregSulfate is pregnenolone sulfate; Nac is […]

T2 sequence (O55242 whole entry): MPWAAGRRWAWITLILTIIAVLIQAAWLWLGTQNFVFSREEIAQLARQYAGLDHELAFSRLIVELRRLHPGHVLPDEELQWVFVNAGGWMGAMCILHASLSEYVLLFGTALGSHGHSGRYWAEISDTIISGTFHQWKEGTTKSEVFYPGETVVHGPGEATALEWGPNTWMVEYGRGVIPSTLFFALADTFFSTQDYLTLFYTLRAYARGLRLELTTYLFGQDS
T1 sequence (O55242 whole entry): as above

| Compound | effect on σ1R-BiP association (σ1R-BiP) | effect on σ1R-NR1 C1 association (σ1R-NR1 C1) | activity at σ1R-BiP against agonists / β-End 1–31 (σ1R-BiP) |
| --- | --- | --- | --- |
| Br.Br.CN(C)CCN(C)CCc1ccc(Cl)c(Cl)c1 [BD1047, N′-[2-(3,4-dichlorophenyl)ethyl]-N,N,N′-trimethylethane-1,2-diamine;dihydrobromide, reference compound] | did the opposite | did the opposite | – |
| COC(=O)[C@]1(c2ccc(C)cc2)C[C@@H]1CN1CCC(O)(c2ccccc2)CC1 [PPCC, (1R,2S/1S,2R)-2-[4-hydroxy-4-phenylpiperidin-1-yl)methyl]-1-(4-methylphenyl) cyclopropanecarboxylate, reference compound] | impaired σ1R associations with σ2R and BiP | increased σ1R-NR1 C1 complexes | – |
| Cl.O=C(OCCN1CCOCC1)C1(c2ccccc2)CCCCC1 [PRE084, 2-(4-morpholinethyl)-1-phenylcyclohexanecarboxylate hydrochloride, reference compound] | impaired σ1R associations with σ2R and BiP | increased σ1R-NR1 C1 complexes | – |
| Cc1cc(OCCN2CCOCC2)nn1-c1ccc2ccccc2c1 [S1RA] | did the opposite | did the opposite | – |
| KKGE [β-End 28–31, C-terminal tetrapeptide of β-End 1–31] | weak direct effect on σ1R-BiP complexes | reduced σ1R-NR1 C1 interactions | neither exhibited activity at σ1R-BiP nor reduced the effect of β-End 1–31 |
| YKKGE [β-End 27–31, C-terminal pentapeptide of β-End 1–31] | increased | increased σ1R-NR1 C1 | – |
| ^αN-acetyl β-End 1–31: β-End 1–31 acetylated at N terminal Y1, α position | weak at σ1R-BiP associations; also recorded: inactive | separated σ1Rs from NR1 C1 subunits at pM concentrations | neither exhibited activity at σ1R-BiP nor reduced the effect of β-End 1–31 |
| β-End 1–26: β-End 1–31 derivative without 5 C-terminal residues (YGGFMTSEKSQTPLVTLFKNAIIKNA; Beta-endorphin; UniProt P01189 237-262, looked up, fragment) | disrupted these complexes with potencies in the pM/nM range | promoted σ1R-NR1 C1 associations at pM concentrations | – |
| β-End 1–27: β-End 1–31 derivative without 4 C-terminal residues (YGGFMTSEKSQTPLVTLFKNAIIKNAY; Beta-endorphin; UniProt P01189 237-263, looked up, fragment) | disrupted these complexes with potencies in the pM/nM range | weak or no effects | – |
| β-End 6–31: β-End 1–31 lacking the N-terminal met-enkephalin 1–5 sequence (TSEKSQTPLVTLFKNAIIKNAYKKGE; Beta-endorphin; UniProt P01189 242-267, looked up, fragment) | – | began to separate the complex | – |
| β-End 22–31: nonphysiological C-terminal sequence of β-End 1–31 (IIKNAYKKGE; Beta-endorphin; UniProt P01189 258-267, looked up, fragment) | – | persisted | – |
